Results published in ChEMBL document CHEMBL4725259 (Bioorg Med Chem, 2020).
pIC50: −log10 of the molar value.

Target: T1, 5-hydroxytryptamine receptor 2C (Homo sapiens, UniProt P28335)
T1 sequence (P28335 whole entry): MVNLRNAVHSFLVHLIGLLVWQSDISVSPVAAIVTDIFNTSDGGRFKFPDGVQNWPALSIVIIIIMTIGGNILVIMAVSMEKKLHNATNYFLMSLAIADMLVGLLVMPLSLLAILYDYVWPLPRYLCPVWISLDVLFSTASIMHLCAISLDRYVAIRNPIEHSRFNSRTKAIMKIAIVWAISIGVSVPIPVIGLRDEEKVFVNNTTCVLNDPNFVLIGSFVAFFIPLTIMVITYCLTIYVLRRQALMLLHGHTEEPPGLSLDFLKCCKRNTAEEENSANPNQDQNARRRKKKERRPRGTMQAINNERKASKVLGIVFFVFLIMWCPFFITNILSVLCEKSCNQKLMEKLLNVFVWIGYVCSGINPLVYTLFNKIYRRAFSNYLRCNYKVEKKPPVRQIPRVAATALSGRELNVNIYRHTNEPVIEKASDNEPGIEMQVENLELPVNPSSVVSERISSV
Assay: Antagonist activity at HTR2C in human U2OS cells by PathHunter beta-arrestin assay
Type: cell-based

- pIC50: 6.74
Structure (SMILES): COC(=O)[C@@H]1[C@H]2C[C@@H](c3[nH]c4ccccc4c3CCn3cc(-c4cccc(Cl)c4)nn3)N(C#N)C[C@@H]2CC[C@@H]1O
